Results taken from US4556653A, “Pyrido[1,5]benzodiazepinone derivatives and pharmacological activities thereof” (Dompe' Farmaceutica S.p.A., priority 1983, dated 1985).

Tests used:
[1] = tested on: Carbachole salivation; assay: Carbachole salivation in the rat; assay type: in vivo, rat (male Sprague-Dawley); settings: 62.5 mg/kg p.o., one hour before carbachole 1 mg/kg i.p.
Procedure: Carbachole salivation in the rat
The method cited by R. Turner: "Parasympatholytic Agents" in R. Turner "Screening Methods in Pharmacology" pag. 137. Academic Press. New York and London 1965, with slight changes, was used.
Male Sprague-Dawley rats, average weight 150.-+.5 g, fasting since 24 hours, were used.
The salivation was induced by the intraperitoneal administration of 1 mg/kg of carbachole.
The products under exam were administered orally one hour before the cholinergic stimulus.

[2] = in vivo; settings: mouse, po, Swiss mice, 14 days observation
Procedure: The acute toxicity was determined by administering by oral route the substances under exam to Swiss mice; average weight 20.-+.2 g. The observation period was 14 days. 10 Animals were used for each tested dose.

[3] = tested on: Gastric acid secretion; assay: Gastric acid secretion in the pylorus ligated rat (antisecretory activity); assay type: in vivo, rat (male Sprague-Dawley); settings: 4 hours
Procedure: Gastric acid secretion in the pylorus ligated rat
Male Sprague-Dawley rats weighing 150.-+.5 g fasting since 48 hours were used. Pylorus ligation was performed for 4 hours. The products under exam were administered by the oral route immediately after the ligation.

[4] = tested on: muscarinic receptor; assay: Interaction with muscarinic receptor (displacement of 3H-QNB bound to rat cerebral cortex receptors); assay type: binding; set-up: unit not given here
[5] = concentration 10^-5 (unit not given)
[6] = concentration 10^-6 (unit not given)
[7] = concentration 10^-7 (unit not given)

| Compound | Carbachol salivation - % protection [1] | LD50 at 336 h [2] | % Antisecretory activity ([3]; 6.25 mg/kg p.o.) | % Antisecretory activity ([3]; 12.5 mg/kg p.o.) | % Antisecretory activity ([3]; 25 mg/kg p.o.) | Interaction with muscarinic receptor [4, 5] | Interaction with muscarinic receptor [4, 6] | Interaction with muscarinic receptor [4, 7] |
| --- | --- | --- | --- | --- | --- | --- | --- | --- |
| CC(C(=O)N1c2ccccc2C(=O)Nc2cccnc21)N1CCCCC1 (stereo not shown) [Compound 1, 11-[2-(Piperidin-1-yl)propionyl]-5,11-dihydro-6H-pyrido-[2,3-b][1,4]benzodiazepin-6-one] | 0% | > 500 mg/kg | 10.3% | 36.3% | 71.3% | 46.6 | 3.96 | 0 |
| O=C1Nc2cccnc2N(C(=O)CN2CCCCCC2)c2ccccc21 [Compound 2, 11-[2-(Hexamethylenimino)acetyl]-5,11-dihydro-6H-pyrido[2,3-b][1,4]benzodiazepin-6-one] | 100% | > 500 mg/kg | 11.6% | 33.7% | 55.2% | 93.3 | 49.7 | 12.8 |
| O=C1Nc2cccnc2N(C(=O)CCN2CCCCCC2)c2ccccc21 [Compound 4, 11-[3-(Hexamethylenimino)propionyl]-5,11-dihydro-6H-pyrido[2,3-b][1,4]benzodiazepin-6-one] | 50% | < 500 mg/kg | 21.5% | 50.2% | 64.1% | 94.4 | 54.3 | 3.0 |
| CC1CCCCN1CC(=O)N1c2ccccc2NC(=O)c2cccnc21 (stereo not shown) [Compound 5, 11-[2-(2-Methylpiperidin-1-yl)acetyl]-6,11-dihydro-5H-pyrido[2,3-b][1,5]benzodiazepin-5-one] | 100% | < 500 mg/kg | 18.7% | 58.4% | 66.7% | 96.9 | 71.7 | 14.6 |
| CN1CCN(CC(=O)N2c3ccccc3C(=S)Nc3cccnc32)CC1 [Compound 6, 11-[2-(4-Methylpiperazin-1-yl)acetyl]-5,11-dihydro-6H-pyrido[2,3-b][1,4]benzodiazepin-6-thione] | 10% | < 500 mg/kg | 7.2% | 25.8% | 51.4% | 85.5 | 43.9 | 7.5 |
| CC1(C)CCCN(CC(=O)N2c3ccccc3C(=O)Nc3cccnc32)C1 [Compound 10] | 0% | > 500 mg/kg | 12.4% | 24.7% | 41.5% | 30.2 | 0.2 | 0 |
| CN1CCN(CC(=O)N2c3ccccc3C(=O)Nc3cccnc32)CC1 [P, Pirenzepine, reference compound] | 10% | – | 7.9% | 46.0% | 71.5% | – | – | – |
